SMILES strings stand for the structures.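 Five concentrations, 48 hours, 96-well plates. TGI marks complete inhibition of growth.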

The values below come from PubChem BioAssay (NCI).

Test systems include MOLT-4 leukemia; PC-3 prostate; DU-145 prostate; SF-295 CNS; LOX IMVI melanoma; HCT-116 colon; M14 melanoma; OVCAR-8 ovarian; TK-10 renal; SK-OV-3 ovarian; OVCAR-5 ovarian; BT-549 breast; SN12C renal; HS 578T breast; NCI/ADR-RES ovarian; MDA-N; HCT-15 colon; SR leukemia.
Common to all, as to experiment: growth of human tumour cells (NCI), 48 h

Consider `COc1c(OC)c(OC)c2c(=O)c(OC)c(-c3ccc4c(c3)OCO4)oc2c1OC`, for which the TGI in the assay with MOLT-4 leukemia, in the assay on PC-3 prostate, in the assay with DU-145 prostate, in the assay on SF-295 CNS, in the assay with LOX IMVI melanoma and in the assay with HCT-116 colon was greater than 100 µM in each case. Moreover, the TGI in the assay on M14 melanoma, in the assay on OVCAR-8 ovarian, with TK-10 renal, in the assay with SK-OV-3 ovarian, in the assay on OVCAR-5 ovarian and in the assay on BT-549 breast was greater than 100 µM in each case. Further, the TGI in the assay on SN12C renal, with HS 578T breast, in the assay with NCI/ADR-RES ovarian, in the assay on MDA-N and in the assay with HCT-15 colon was greater than 100 µM in each case.
`Nc1nc(Cl)cc(NCC2(CO)CC=CC2)n1`: the TGI in the assay on MOLT-4 leukemia, in the assay on PC-3 prostate, with DU-145 prostate, in the assay on SF-295 CNS, with LOX IMVI melanoma and with HCT-116 colon was greater than 100 µM each time. The TGI in the assay on OVCAR-8 ovarian, in the assay on TK-10 renal, in the assay on SK-OV-3 ovarian, in the assay with OVCAR-5 ovarian, in the assay with BT-549 breast and with SN12C renal was greater than 100 µM in each case. Also, the TGI in the assay with HS 578T breast, in the assay on NCI/ADR-RES ovarian, in the assay on MDA-N and with HCT-15 colon was greater than 100 µM throughout.
As for `COC(OC)[C@@H]1OC[C@H](n2ccc(=O)[nH]c2=O)[C@H]1O`, the TGI in the assay with MOLT-4 leukemia, in the assay with PC-3 prostate, in the assay with DU-145 prostate, in the assay on SF-295 CNS, in the assay on LOX IMVI melanoma and in the assay with HCT-116 colon was greater than 100 µM each time. For the same compound, the TGI in the assay with M14 melanoma, with SR leukemia, with TK-10 renal, in the assay with SK-OV-3 ovarian, with OVCAR-5 ovarian and in the assay on BT-549 breast was greater than 100 µM each time. In addition, the TGI in the assay with SN12C renal, with HS 578T breast, in the assay with NCI/ADR-RES ovarian, with MDA-N and with HCT-15 colon was greater than 100 µM each time.
In the case of `CCOC(=O)n1ccc2c(C(=O)OC)c(C(=O)OC)cc(/C(=C/C(=O)OC)C(=O)OC)c21`, the TGI in the assay with MOLT-4 leukemia, in the assay with PC-3 prostate, in the assay on DU-145 prostate, in the assay on SF-295 CNS, in the assay on LOX IMVI melanoma and in the assay with HCT-116 colon was greater than 100 µM throughout. In addition, the TGI in the assay on M14 melanoma, with OVCAR-8 ovarian, in the assay on SR leukemia, in the assay with TK-10 renal, in the assay on SK-OV-3 ovarian and in the assay on OVCAR-5 ovarian was greater than 100 µM in each case. Besides, the TGI in the assay with BT-549 breast, in the assay on SN12C renal, in the assay on HS 578T breast, with NCI/ADR-RES ovarian and in the assay on MDA-N was greater than 100 µM in each case.
Consider `O=C(O)c1ccc(C2=Nc3cccc4cccc(c34)N2)cc1`, for which the TGI with MOLT-4 leukemia, in the assay with PC-3 prostate, with DU-145 prostate, with SF-295 CNS, in the assay with LOX IMVI melanoma and in the assay with HCT-116 colon was greater than 100 µM in each case. Further, the TGI in the assay on M14 melanoma, in the assay on OVCAR-8 ovarian, in the assay with SR leukemia, with TK-10 renal, in the assay on SK-OV-3 ovarian and in the assay on BT-549 breast was greater than 100 µM each time. Further, the TGI in the assay with SN12C renal, in the assay on HS 578T breast, in the assay with NCI/ADR-RES ovarian, with MDA-N and in the assay on HCT-15 colon was greater than 100 µM in each case.
For the compound `N#CC(C#N)[C@@H]1CCC=C(Sc2ccccc2)[C@H]1Sc1ccccc1`, the TGI is greater than 23.7 µM in the assay on MOLT-4 leukemia; 17.4 µM in the assay on PC-3 prostate; 10.1 µM in the assay on DU-145 prostate; 19.9 µM in the assay with SF-295 CNS; 8.4 µM in the assay on HCT-116 colon; 4.95 µM in the assay with M14 melanoma. In addition, the TGI in the assay with OVCAR-8 ovarian was 9.37 µM; in the assay on SR leukemia, greater than 27.1 µM; in the assay with TK-10 renal, 4.59 µM; in the assay with SK-OV-3 ovarian, 16.3 µM; in the assay on OVCAR-5 ovarian it was 20.3 µM; with BT-549 breast, 11.9 µM. Also, the TGI with SN12C renal stood at 12.5 µM; with HS 578T breast, 26.6 µM; with NCI/ADR-RES ovarian, 8.37 µM; with MDA-N, 4.41 µM; in the assay with HCT-15 colon, 5.66 µM.
As to `O=S(=O)(N1CCCCN(S(=O)(=O)C(F)(F)F)CCCN(S(=O)(=O)C(F)(F)F)CCCCN(S(=O)(=O)C(F)(F)F)CCCN(S(=O)(=O)C(F)(F)F)CCCCN(S(=O)(=O)C(F)(F)F)CCCN(S(=O)(=O)C(F)(F)F)CCCCN(S(=O)(=O)C(F)(F)F)CCC1)C(F)(F)F`, the TGI in the assay with MOLT-4 leukemia, in the assay with PC-3 prostate, with DU-145 prostate, in the assay with SF-295 CNS, in the assay with LOX IMVI melanoma and in the assay with HCT-116 colon was greater than 31.6 µM each time. The TGI in the assay with M14 melanoma was greater than 31.6 µM; in the assay with OVCAR-8 ovarian, greater than 31.6 µM; in the assay with TK-10 renal it was greater than 31.6 µM; in the assay on SK-OV-3 ovarian it was greater than 31.6 µM; in the assay on OVCAR-5 ovarian, greater than 100 µM; in the assay with BT-549 breast, greater than 31.6 µM. Besides, the TGI in the assay on SN12C renal, with HS 578T breast, in the assay with NCI/ADR-RES ovarian, in the assay with MDA-N and in the assay on HCT-15 colon was greater than 31.6 µM throughout.
As to `CN(C(=O)C12C3(C(=O)O)C4C5(C(=O)O)C3C1(C(=O)O)C5C42C(=O)O)C(C)(C)C` (stereo not given), the TGI in the assay with MOLT-4 leukemia, with PC-3 prostate, in the assay with DU-145 prostate, with SF-295 CNS, with LOX IMVI melanoma and in the assay on HCT-116 colon was greater than 100 µM throughout. Also, the TGI with M14 melanoma, in the assay with OVCAR-8 ovarian, in the assay with SR leukemia, in the assay with TK-10 renal, in the assay with OVCAR-5 ovarian and with BT-549 breast was greater than 100 µM in each case. Besides, the TGI in the assay with SN12C renal, in the assay on HS 578T breast, in the assay with NCI/ADR-RES ovarian, with MDA-N and with HCT-15 colon was greater than 100 µM each time.
